Experimental data as given in the OligoGym collection.
HELM strings list units from the 5' end as sugar, base in round brackets, then linkage (d deoxyribose, r ribose, m 2'-O-methyl, p phosphodiester). Strings are as the collection lists them; they lack the last nucleoside at the 3' end of the tested compound. [moe] = 2'-O-(2-methoxyethyl) (MOE); [sp] = phosphorothioate linkage; [m5C] = 5-methylcytosine

Molecular target: LRRK2
Assay: mouse, dose not given
Conditions: ASO

Substance	3 h FOB score [score 0-7]
RNA1{[moe](A)[sp].[moe](T)p.[moe]([m5C])[sp].[moe](A)[sp].[moe](T)[sp].d(T)[sp].d(G)[sp].d([m5C])[sp].d(T)[sp].d(G)[sp].d([m5C])[sp].d(T)[sp].d([m5C])[sp].d(A)[sp].d(T)[sp].[moe](A)[sp].[moe](T)p.[moe]([m5C])[sp].[moe](T)}$$$$ (last 3' nucleoside missing)	6
RNA1{[moe](G)[sp].[moe](T)p.[moe](G)p.[moe]([m5C])p.[moe](A)[sp].d(A)[sp].d(G)[sp].d(T)[sp].d([m5C])[sp].d([m5C])[sp].d(A)[sp].d(A)[sp].d(A)[sp].d(T)[sp].d(G)[sp].[moe](T)p.[moe](G)p.[moe](T)[sp].[moe]([m5C])}$$$$ (last 3' nucleoside missing)	2
RNA1{[moe](G)[sp].[moe](G)p.[moe](A)p.[moe](G)p.[moe](A)[sp].d(T)[sp].d(T)[sp].d(A)[sp].d(T)[sp].d(T)[sp].d(T)[sp].d(A)[sp].d(G)[sp].d(T)[sp].d(G)[sp].[moe]([m5C])p.[moe]([m5C])p.[moe]([m5C])[sp].[moe](A)}$$$$ (last 3' nucleoside missing)	6
RNA1{[moe]([m5C])[sp].[moe](T)p.[moe](T)[sp].[moe](T)[sp].[moe]([m5C])[sp].d(A)[sp].d(T)[sp].d(A)[sp].d(G)[sp].d([m5C])[sp].d(T)[sp].d(T)[sp].d([m5C])[sp].d([m5C])[sp].d(A)[sp].[moe]([m5C])[sp].[moe]([m5C])p.[moe](A)[sp].[moe]([m5C])}$$$$ (last 3' nucleoside missing)	3
RNA1{[moe](T)[sp].[moe]([m5C])p.[moe](T)p.[moe](T)p.[moe]([m5C])[sp].d(A)[sp].d(G)[sp].d(T)[sp].d(T)[sp].d([m5C])[sp].d([m5C])[sp].d(T)[sp].d(T)[sp].d([m5C])[sp].d(A)[sp].[moe](G)p.[moe](T)p.[moe]([m5C])[sp].[moe](T)}$$$$ (last 3' nucleoside missing)	3
RNA1{[moe](A)[sp].[moe](A)p.[moe](A)[sp].[moe](T)[sp].[moe](G)[sp].d(A)[sp].d(G)[sp].d(T)[sp].d(G)[sp].d([m5C])[sp].d(A)[sp].d(T)[sp].d(G)[sp].d(G)[sp].d([m5C])[sp].[moe](A)[sp].[moe](T)p.[moe]([m5C])[sp].[moe](A)}$$$$ (last 3' nucleoside missing)	4
RNA1{[moe](G)[sp].[moe]([m5C])p.[moe](T)p.[moe](G)p.[moe](T)[sp].d(A)[sp].d(A)[sp].d(T)[sp].d(A)[sp].d([m5C])[sp].d(G)[sp].d(G)[sp].d([m5C])[sp].d(A)[sp].d(T)[sp].[moe]([m5C])p.[moe](T)p.[moe]([m5C])[sp].[moe](G)}$$$$ (last 3' nucleoside missing)	6
RNA1{[moe](A)[sp].[moe](G)p.[moe](G)p.[moe]([m5C])p.[moe](A)[sp].d(T)[sp].d(T)[sp].d(T)[sp].d([m5C])[sp].d(A)[sp].d(T)[sp].d(A)[sp].d(T)[sp].d(A)[sp].d(G)[sp].[moe](T)p.[moe]([m5C])p.[moe](G)[sp].[moe](G)}$$$$ (last 3' nucleoside missing)	4
RNA1{[moe](A)[sp].[moe](T)p.[moe](G)p.[moe]([m5C])p.[moe](T)[sp].d(T)[sp].d(T)[sp].d([m5C])[sp].d(A)[sp].d(T)[sp].d(A)[sp].d(G)[sp].d([m5C])[sp].d(T)[sp].d(T)[sp].[moe]([m5C])p.[moe]([m5C])p.[moe](A)[sp].[moe]([m5C])}$$$$ (last 3' nucleoside missing)	0
RNA1{[moe](G)[sp].[moe]([m5C])p.[moe]([m5C])p.[moe]([m5C])p.[moe](A)[sp].d(T)[sp].d(T)[sp].d(T)[sp].d([m5C])[sp].d(T)[sp].d(T)[sp].d([m5C])[sp].d(A)[sp].d(A)[sp].d([m5C])[sp].[moe](A)p.[moe](G)p.[moe](A)[sp].[moe](G)}$$$$ (last 3' nucleoside missing)	0
RNA1{[moe]([m5C])[sp].[moe]([m5C])p.[moe](T)[sp].[moe](G)[sp].[moe](A)[sp].d([m5C])[sp].d(A)[sp].d(T)[sp].d(T)[sp].d(G)[sp].d([m5C])[sp].d([m5C])[sp].d(A)[sp].d([m5C])[sp].d(T)[sp].[moe]([m5C])[sp].[moe](A)p.[moe](T)[sp].[moe](G)}$$$$ (last 3' nucleoside missing)	4
RNA1{[moe](T)[sp].[moe](G)p.[moe](T)[sp].[moe]([m5C])[sp].[moe](A)[sp].d([m5C])[sp].d([m5C])[sp].d(T)[sp].d(T)[sp].d(T)[sp].d([m5C])[sp].d([m5C])[sp].d([m5C])[sp].d(A)[sp].d(A)[sp].[moe](T)[sp].[moe](G)p.[moe]([m5C])[sp].[moe](T)}$$$$ (last 3' nucleoside missing)	5
RNA1{[moe](A)[sp].[moe](G)p.[moe](T)p.[moe](T)[sp].[moe]([m5C])[sp].d([m5C])[sp].d(T)[sp].d(T)[sp].d([m5C])[sp].d(A)[sp].d(G)[sp].d(T)[sp].d([m5C])[sp].d(T)[sp].d([m5C])[sp].[moe](A)p.[moe](A)p.[moe](G)[sp].[moe](G)}$$$$ (last 3' nucleoside missing)	7
RNA1{[moe](A)[sp].[moe]([m5C])p.[moe]([m5C])p.[moe]([m5C])p.[moe](T)[sp].d(T)[sp].d(T)[sp].d([m5C])[sp].d([m5C])[sp].d(A)[sp].d(T)[sp].d(G)[sp].d(T)[sp].d(G)[sp].d(A)[sp].[moe](A)p.[moe]([m5C])p.[moe](A)[sp].[moe](T)}$$$$ (last 3' nucleoside missing)	4
RNA1{[moe](G)[sp].[moe](T)p.[moe](G)p.[moe](A)p.[moe](A)[sp].d(G)[sp].d([m5C])[sp].d(A)[sp].d([m5C])[sp].d(T)[sp].d(G)[sp].d(A)[sp].d(A)[sp].d(T)[sp].d([m5C])[sp].[moe]([m5C])p.[moe](A)p.[moe](T)[sp].[moe](A)}$$$$ (last 3' nucleoside missing)	6
RNA1{[moe]([m5C])[sp].[moe]([m5C])p.[moe](A)p.[moe]([m5C])p.[moe](A)[sp].d(A)[sp].d(A)[sp].d([m5C])[sp].d(T)[sp].d([m5C])[sp].d(A)[sp].d(T)[sp].d(G)[sp].d(G)[sp].d(A)[sp].[moe]([m5C])p.[moe](T)p.[moe](T)[sp].[moe]([m5C])}$$$$ (last 3' nucleoside missing)	6
RNA1{[moe](T)[sp].[moe](T)p.[moe](A)[sp].[moe](A)[sp].[moe]([m5C])[sp].d(A)[sp].d(A)[sp].d(T)[sp].d(A)[sp].d(T)[sp].d([m5C])[sp].d(A)[sp].d(T)[sp].d(A)[sp].d(T)[sp].[moe](A)[sp].[moe](A)p.[moe](T)[sp].[moe]([m5C])}$$$$ (last 3' nucleoside missing)	0
RNA1{[moe]([m5C])[sp].[moe](T)p.[moe](T)[sp].[moe]([m5C])[sp].[moe](A)[sp].d(G)[sp].d(T)[sp].d(T)[sp].d([m5C])[sp].d([m5C])[sp].d(T)[sp].d(T)[sp].d([m5C])[sp].d(A)[sp].d(G)[sp].[moe](T)[sp].[moe]([m5C])p.[moe](T)[sp].[moe]([m5C])}$$$$ (last 3' nucleoside missing)	6
